In patent publication EP4755881A1 (Wuhan Createrna Science and Technology Co., Ltd., priority 2023, dated 2025):
pIC50: −log10 of the molar value. Where two headings read alike, the source gives them in different places.

Assays:
LPAR1 receptor = target: T1, LPAR1 receptor (Homo sapiens, UniProt Q92633); assay: LPAR1 in vitro biological activity evaluation 2: HTRF cAMP kit (LANCE Ultra cAMP Kit) assay in CHO stable transfected cell line expressing the LPAR1 receptor; type: cell-based; settings: Table 2, read-out: LPAR1 inhibitory activity IC50
T1 construct: expressed in transfected cells
Procedure: The inhibitory effects of the compounds of the present disclosure on the LPAR1 receptor were determined using a Chinese hamster ovary (CHO) stable transfected cell line expressing the LPAR1 receptor, through the HTRF cAMP kit (LANCE® Ultra cAMP Kit).
The CHO cell line expressing the LPAR1 receptor was cultured in F-12 medium (Gibco, 117650054) containing 10% fetal bovine serum (FBS, Avantor, 76294-180) and 0.2 mg/mL hygromycin B (Solarbio, H8080-1g) at 37°C with 5% CO2. Cell passage, recovery, and cryopreservation were performed according to conventional methods. The stable transfected cell line was cultured to 80% confluence, digested with trypsin to collect cells, counted, and then seeded at 5 µL/well in a 384-well plate (500 cells/5 µL). The 1× Stimulation Buffer was prepared according to the instructions of the kit (LANCE® Ultra cAMP Kit). 1 µL of the test compound solution (diluted to 10× with 1× Stimulation Buffer) was added to the corresponding experimental wells, followed by centrifugation and incubation at 37°C for 10 minutes. […] 5 µL/well of Eu-cAMP (diluted with Detection buffer) was added to the corresponding experimental wells. 5 µL/well of ULight™-anti-cAMP antibody (diluted with Detection buffer) was added to the corresponding experimental wells, followed by centrifugation and incubation at room temperature for 1 hour. After the incubation was completed, the readings at 665 nm and 620 nm under 330 nm excitation were detected using the HTS high-throughput drug screening multifunctional microplate reader (BMG, PHERAstar FSX). The IC50 values were calculated by fitting nonlinear regression (dose response - variable slope) using GraphPad Prism software.

[1] = Pharmacokinetic study in rats (oral gavage and tail vein injection, plasma LC-MS/MS); type: in vivo; settings: rat; for Cmax: read-out: Cmax
Procedure: Male SPF-grade SD rats (Beijing Vital River Laboratory Animal Technology Co., Ltd.) with a body weight range of 200 to 250 g were used. After acclimatization, the rats were administered a clear solution of the compound of the present disclosure via oral gavage (Po, fasted overnight before administration with free access to water, food returned 4 hours after administration) and tail vein injection (Iv, free access to food and water throughout the administration). Blood samples were collected from the orbital venous plexus/jugular vein of rats at specified time points after administration (blood collection time points for the PO group: 0.167, 0.5, 1, 2, 4, 6, 8, and 24 h; for the IV group: 0.033, 0.167, 1, 2, 4, 6, 8, and 24 h). The concentration of compounds in plasma was detected by LC-MS/MS (AB SCIEX Qtrap4500). Data were analyzed using WinNonlin (version 5.2.1 Pharsight, Mountain View, CA) with a non-compartmental model to obtain PK parameters (including Cmax, C0, Tmax, AUClast, AUCinf, T1/2, etc.).
Table 3: Results of in vivo pharmacokinetic studies of compounds of the present disclosure in rats
The vehicle for the Po group compound was 5% DMSO + 5% ethanol + 60% PEG400 + 30% normal saline; the vehicle for the Iv group compound was 10% ethanol + 20% pure water + 70% PEG400 solution.

[2] = target: hLPAR1 (human lysophosphatidic acid receptor 1, Accession No.: NM_001401.4) (Homo sapiens, UniProt Q92633); assay: cell-based; settings: FLIPR method, CHO-K1 cells overexpressing hLPAR1
How it was run: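 Antagonist mode in CHO-K1 cells stably expressing hLPAR1, Fluo-4 loaded; compound preincubated 30 min at room temperature before 1 µM oleoyl-LPA (final) challenge.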

[3] = Table 1, read-out: LPAR1 inhibitory activity IC50
[4] = LPAR1 inhibitory activity IC50, Table 1

Sequence of hLPAR1 (human lysophosphatidic acid receptor 1, Accession No.: NM_001401.4) (Q92633 whole entry): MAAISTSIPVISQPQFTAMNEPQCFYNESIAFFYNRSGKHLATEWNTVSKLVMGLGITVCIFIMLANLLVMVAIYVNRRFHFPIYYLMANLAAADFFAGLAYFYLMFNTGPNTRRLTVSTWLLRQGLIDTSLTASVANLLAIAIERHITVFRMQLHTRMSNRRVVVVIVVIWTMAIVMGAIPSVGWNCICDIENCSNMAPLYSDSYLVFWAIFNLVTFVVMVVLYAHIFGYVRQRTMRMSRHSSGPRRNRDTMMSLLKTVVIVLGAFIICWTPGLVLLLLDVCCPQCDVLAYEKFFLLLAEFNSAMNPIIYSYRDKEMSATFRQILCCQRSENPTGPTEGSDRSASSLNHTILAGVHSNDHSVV
T1 sequence (Q92633 whole entry): as above

COC1CC(C#Cc2ccc(-c3nnn(C)c3NC(=O)O[C@H](C)c3ccccc3F)nc2C)(CC(=O)O)C1 (stereo partly shown) [compound 466]
pIC50 (LPAR1 receptor): 7.59

CCC(F)(F)[C@@H](C)OC(=O)Nc1c(-c2ccc(C#Cc3cc(C(F)(F)F)ncc3C(=O)O)c(C)n2)nnn1C [compound 513]
pIC50 (LPAR1 receptor): 7.58

CCOC1CC(C#Cc2ccc(-c3nnn(C)c3NC(=O)O[C@H](C)C(F)(F)CC)nc2C(F)(F)F)(CC(=O)O)C1 (stereo partly shown) [compound 490]
pIC50 (LPAR1 receptor): 8.07

CCOC1CC(C#Cc2ccc(-c3nnn(C)c3NC(=O)O[C@H](C)C(F)(F)CC)nc2CC)(CC(=O)O)C1 (stereo partly shown) [compound 489]
pIC50 (LPAR1 receptor): 7.85

C[C@H](CC(C)(F)F)OC(=O)Nc1c(-c2ccc(C#CC3(CC(=O)O)CC4(CC4)C3)c(C(F)(F)F)n2)nnn1C [compound 498]
pIC50 (LPAR1 receptor): 8.22

CCC[C@@H](C)OC(=O)Nc1c(-c2ccc(C#CC3(CC(=O)O)CC(OC)C3)c(C)n2)nnn1C (single isomer, unassigned) [278-A]
pIC50 (LPAR1 receptor): 7.34

CCC(F)(F)[C@@H](C)OC(=O)Nc1c(C)noc1-c1ccc(C#C[C@@H]2CC(F)(F)C[C@H]2C(=O)O)c(C)n1 [compound 487]
pIC50 (LPAR1 receptor): 7.45

CCC(F)(F)[C@@H](C)OC(=O)Nc1c(C)noc1-c1ccc(C#CC2(CC(=O)O)CC2)c(CF)n1 [compound 335]
pIC50 (LPAR1 receptor): 6.95

CCc1nc(-c2nnn(C)c2NC(=O)O[C@H](C)CC(C)(F)F)ccc1C#CC1(CC(=O)O)CC2(CC2)C1 [compound 500]
pIC50 (LPAR1 receptor): 8.35

CCC(F)(F)[C@@H](C)OC(=O)Nc1c(-c2ccc(C#CC3(CC(=O)O)CC(OC)C3)c(Cl)n2)noc1C (stereo partly shown) [compound 470]
pIC50 (LPAR1 receptor): 7.62

COC1CC(C#Cc2ccc(-c3nnn(C)c3NC(=O)O[C@H](C)c3ccccc3)nc2C)(CC(=O)O)C1 (stereo partly shown) [compound 464]
pIC50 (LPAR1 receptor): 7.63

CCOC1CC(C#Cc2ccc(-c3nnn(C)c3NC(=O)O[C@H](C)CC(C)(F)F)nc2C)(CC(=O)O)C1 (stereo partly shown) [compound 430]
pIC50 (LPAR1 receptor): 7.20

Cc1nc(-c2nnn(C)c2NC(=O)O[C@H](C)CC(C)C)ccc1C#C[C@@H]1C[C@H]1C(=O)O [compound 290]
pIC50 (LPAR1 receptor): 6.72

Cc1nc(-c2nnn(C)c2NC(=O)OC(C)C23CC(C2)C3)ccc1C#C[C@@H]1CC[C@H]1C(=O)O (stereo partly shown) [compound 296]
pIC50 (LPAR1 receptor): 7.08

CCC(F)(F)[C@@H](C)OC(=O)Nc1c(-c2ccc(C#Cc3ccncc3C(=O)O)c(C)n2)nnn1C [compound 474, (R)-4-((6-(5-((((3,3-difluoropentan-2-yl)oxy)carbonyl)amino)-1-methyl-1H-1,2,3-triazol-4-yl)-2-methylpyridin-3-yl)ethynyl)nicotinic acid]
pIC50 (LPAR1 receptor): 6.78

CCC(F)(F)[C@@H](C)OC(=O)Nc1c(-c2ccc(C#C[C@@H]3CC[C@H]3C(=O)O)c(C)n2)nnn1C (mixture of isomers) [212-B, trans-2-((6-(5-(((((R)-3,3-difluoropentan-2-yl)oxy)carbonyl)amino)-1-methyl-1H-1,2,3-triazol-4-yl)-2-methylpyridin-3-yl)ethynyl)cyclobutane-1-carboxylic acid]
half-life ([1]; male, SD, iv, 1 mg/kg): 7.43 h
half-life ([1]; male, SD, po, 1 mg/kg): 7.96 h
AUC(0-t) ([1]; male, SD rats, Iv, 1 mg/kg): 5000 to 10000 ng·h/mL
Cmax ([1]; male, SD rats, Iv, 1 mg/kg): 800 to 5000 ng/mL
AUC(0-t) ([1]; male, SD rats, Po, 1 mg/kg): 5000 to 10000 ng·h/mL
Cmax ([1]; male, SD rats, Po, 1 mg/kg): 800 to 5000 ng/mL
pIC50 [2, 3]: 7.59

CCC(F)(F)CC(C)OC(=O)Nc1c(-c2ccc(C#CC3CCC3C(=O)O)c(C)n2)nnn1C (single isomer, unassigned) [245-B]
AUC(0-t) ([1]; SD rats, Iv, 1 mg/kg): 3000 to 5000 ng·h/mL
half-life ([1]; SD rats, Iv, 1 mg/kg): 7.22 h
Cmax ([1]; SD rats, Iv, 1 mg/kg): 800 to 5000 ng/mL
AUC(0-t) ([1]; SD rats, Po, 1 mg/kg): 3000 to 5000 ng·h/mL
half-life ([1]; SD rats, Po, 1 mg/kg): 6.66 h
Cmax ([1]; SD rats, Po, 1 mg/kg): 200 to 800 ng/mL
pIC50 [2, 3]: 7.46

Cc1nc(-c2nnn(C)c2Nc2cncc(OC(C)C)n2)ccc1C#CC1(CC(=O)O)CC1 [compound 125, 2-(1-((6-(5-((6-isopropoxypyrazin-2-yl)amino)-1-methyl-1/7-1,2,3-triazol-4-yl)-2-methylpyridin-3-yl)ethynyl)cyclopropyl)acetic acid]
AUC(0-t) ([1]; SD rats, Iv, 1 mg/kg): 1200 to 3000 ng·h/mL
half-life ([1]; SD rats, Iv, 1 mg/kg): 4.65 h
Cmax ([1]; SD rats, Iv, 1 mg/kg): 800 to 5000 ng/mL
pIC50 [2, 4]: 7.36

Cc1nc(-c2nnn(C)c2CNC(=O)OCc2ccccc2)ccc1C#CC1(CC(=O)O)CC1 [compound 215]
AUC(0-t) ([1]; SD rats, Iv, 1 mg/kg): 1200 to 3000 ng·h/mL
half-life ([1]; SD rats, Iv, 1 mg/kg): 5.03 h
Cmax ([1]; SD rats, Iv, 1 mg/kg): 800 to 5000 ng/mL
AUC(0-t) ([1]; SD rats, Po, 3 mg/kg): 5000 to 10000 ng·h/mL
half-life ([1]; SD rats, Po, 3 mg/kg): 4.49 h
Cmax ([1]; SD rats, Po, 3 mg/kg): 800 to 5000 ng/mL
pIC50 [2, 4]: 7.37
